Laboratory results from paper PMC10537368, “Design, Synthesis, and Biological Evaluation of Novel 3-Cyanopyridone/Pyrazoline Hybrids as Potential Apoptotic Antiproliferative Agents Targeting EGFR/BRAF^V600E Inhibitory Pathways” (Molecules, 2023).
Where “and” joins values, the source holds several entries; their conditions need not be identical. Equal entries are not always repeated. Where two headings read alike, the source gives them in different places.

How the values were obtained:
[1] = system: four human cancer cell lines (A-549, MCF-7, Panc-1, HT-29); experiment: Antiproliferative MTT assay, average over four cancer cell lines (GI50); format: cell-based; details: for IC50: Homo sapiens, average IC50 against the four cancer cell lines
[2] = system: breast cancer (MCF-7) cell line; experiment: Antiproliferative MTT assay, MCF-7; format: cell-based; details: Homo sapiens, MCF7; MCF-7, MTT; read-out: Antiproliferative Activity IC50 ± SEM, MCF-7
Excerpt: (§1) The median inhibitory concentration (IC50) and GI50 [58]

[3] = system: lung cancer (A-549) cell line; experiment: Antiproliferative MTT assay, A-549; format: cell-based; details: Homo sapiens, A549; A-549, MTT; read-out: Antiproliferative Activity IC50 ± SEM, A-549
Excerpt: as §1

[4] = system: pancreatic cancer (Panc-1) cell line; experiment: Antiproliferative MTT assay, Panc-1; format: cell-based; details: Homo sapiens; Panc-1, MTT; read-out: Antiproliferative Activity IC50 ± SEM, Panc-1
Excerpt: as §1

[5] = Cell viability MTT assay on MCF-10A normal cells; format: cell-based; details: human, MCF-10A mammary gland epithelial normal cells, MCF-10A cells, four days of incubation
Description: The viability of new compounds 21–30 was examined using the human mammary gland epithelial (MCF-10A) cell line. The cell viability of compounds 21–30 was assessed using the MTT assay after four days of incubation on MCF-10A cells.
The human mammary gland epithelial (MCF-10A) normal cell line was utilized to investigate the viability of new derivatives 21–30 [56]. For more information, see Supplementary Materials Files.

[6] = system: colon cancer (HT-29) cell line; experiment: Antiproliferative MTT assay, HT-29; format: cell-based; details: Homo sapiens; HT-29, MTT; read-out: Antiproliferative Activity IC50 ± SEM, HT-29
Excerpt: as §1

Panc-1 cancer = system: Panc-1 cancer; design: method as in PMID 36526595; details: read-out: IC50 against Panc-1 cancer; cited from earlier work
EGFR [7] = target: T1, EGFR (Homo sapiens, UniProt P00533); details: read-out: EGFR inhibition IC50; cited from earlier work
BRAF^V600E [8] = target: T2, BRAF^V600E (Homo sapiens, UniProt P15056, V600E); details: cited from earlier work
BRAF^V600E [9] = target: T2, BRAF^V600E; experiment: BRAF^V600E inhibitory assay; format: biochemical; details: read-out: BRAF^V600E Inhibition IC50 ± SEM
EGFR [10] = target: T1, EGFR; experiment: EGFR inhibitory assay; details: for fold more potent than the reference Erlotinib (EGFR IC50): IC50 ratio vs Erlotinib
[11] = system: Caspase-3 in human epithelial cancer cell line (A-594); experiment: Caspase 3 activation assay; format: cell-based; details: for Caspase-3 Conc: A-594 cell line; for Caspase-3 Fold Change: A-594, vs untreated control cells
Excerpt: Caspases are essential for the induction and maintenance of apoptosis. Caspase-3 is an important caspase that cleaves several cell proteins, causing apoptosis.
See Supplementary Materials Files.

[12] = system: Bax in A-594 cancer cell line; experiment: Bax level assay; format: cell-based, human; details: for Bax Fold Change: A-594, vs untreated control; for Bax Conc: A-594 cell line
[13] = system: Bcl-2 in A-594 cancer cell line; experiment: Bcl-2 level assay; format: cell-based, human; details: for Bcl-2 Fold Reduction: A-594, vs untreated control; for Bcl-2 Conc: A-594 cell line
Excerpt: […]. […]. Compared to the untreated control cell, compounds 28 and 30 elevated caspase-8 levels by 25- and 28-fold, respectively.
[…]. Compounds 21, 28, and 30 were investigated as caspase-3, caspase-8, Bax activators, and Bcl-2 down-regulators against the human epithelial cancer cell line (A-594). See Supplementary Materials Files.

[14] = system: Caspase-8 in A-594 cancer cell line; experiment: Caspase-8 level assay; format: cell-based, human; details: for Caspase-8 Fold Change: A-594, vs untreated control; for Caspase-8 Conc: A-594 cell line
A-549 cancer = system: A-549 cancer; design: method as in PMID 37240450; details: read-out: IC50 against A-549 cancer; cited from earlier work

T2 sequence (P15056 whole entry V600E): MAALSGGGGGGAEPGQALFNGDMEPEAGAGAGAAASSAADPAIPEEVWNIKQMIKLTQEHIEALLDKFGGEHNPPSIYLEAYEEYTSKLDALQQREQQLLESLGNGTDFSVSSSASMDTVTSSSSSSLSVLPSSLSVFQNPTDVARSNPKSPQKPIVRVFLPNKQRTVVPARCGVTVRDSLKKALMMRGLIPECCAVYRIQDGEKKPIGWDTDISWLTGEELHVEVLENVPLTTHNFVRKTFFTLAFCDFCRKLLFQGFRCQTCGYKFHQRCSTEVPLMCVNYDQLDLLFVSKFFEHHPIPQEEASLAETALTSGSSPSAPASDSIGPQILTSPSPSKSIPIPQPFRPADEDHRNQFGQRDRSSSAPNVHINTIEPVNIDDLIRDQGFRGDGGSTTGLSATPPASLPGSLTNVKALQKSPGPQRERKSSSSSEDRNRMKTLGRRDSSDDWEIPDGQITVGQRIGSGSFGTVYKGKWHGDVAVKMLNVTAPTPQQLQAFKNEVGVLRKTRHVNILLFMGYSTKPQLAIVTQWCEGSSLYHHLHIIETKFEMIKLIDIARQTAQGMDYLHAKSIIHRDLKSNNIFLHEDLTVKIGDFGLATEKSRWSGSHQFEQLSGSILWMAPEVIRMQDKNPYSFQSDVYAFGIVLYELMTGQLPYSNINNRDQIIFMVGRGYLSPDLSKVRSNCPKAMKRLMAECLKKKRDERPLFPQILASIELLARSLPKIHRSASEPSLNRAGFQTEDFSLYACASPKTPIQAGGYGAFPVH
T1 sequence (P00533 25-1210): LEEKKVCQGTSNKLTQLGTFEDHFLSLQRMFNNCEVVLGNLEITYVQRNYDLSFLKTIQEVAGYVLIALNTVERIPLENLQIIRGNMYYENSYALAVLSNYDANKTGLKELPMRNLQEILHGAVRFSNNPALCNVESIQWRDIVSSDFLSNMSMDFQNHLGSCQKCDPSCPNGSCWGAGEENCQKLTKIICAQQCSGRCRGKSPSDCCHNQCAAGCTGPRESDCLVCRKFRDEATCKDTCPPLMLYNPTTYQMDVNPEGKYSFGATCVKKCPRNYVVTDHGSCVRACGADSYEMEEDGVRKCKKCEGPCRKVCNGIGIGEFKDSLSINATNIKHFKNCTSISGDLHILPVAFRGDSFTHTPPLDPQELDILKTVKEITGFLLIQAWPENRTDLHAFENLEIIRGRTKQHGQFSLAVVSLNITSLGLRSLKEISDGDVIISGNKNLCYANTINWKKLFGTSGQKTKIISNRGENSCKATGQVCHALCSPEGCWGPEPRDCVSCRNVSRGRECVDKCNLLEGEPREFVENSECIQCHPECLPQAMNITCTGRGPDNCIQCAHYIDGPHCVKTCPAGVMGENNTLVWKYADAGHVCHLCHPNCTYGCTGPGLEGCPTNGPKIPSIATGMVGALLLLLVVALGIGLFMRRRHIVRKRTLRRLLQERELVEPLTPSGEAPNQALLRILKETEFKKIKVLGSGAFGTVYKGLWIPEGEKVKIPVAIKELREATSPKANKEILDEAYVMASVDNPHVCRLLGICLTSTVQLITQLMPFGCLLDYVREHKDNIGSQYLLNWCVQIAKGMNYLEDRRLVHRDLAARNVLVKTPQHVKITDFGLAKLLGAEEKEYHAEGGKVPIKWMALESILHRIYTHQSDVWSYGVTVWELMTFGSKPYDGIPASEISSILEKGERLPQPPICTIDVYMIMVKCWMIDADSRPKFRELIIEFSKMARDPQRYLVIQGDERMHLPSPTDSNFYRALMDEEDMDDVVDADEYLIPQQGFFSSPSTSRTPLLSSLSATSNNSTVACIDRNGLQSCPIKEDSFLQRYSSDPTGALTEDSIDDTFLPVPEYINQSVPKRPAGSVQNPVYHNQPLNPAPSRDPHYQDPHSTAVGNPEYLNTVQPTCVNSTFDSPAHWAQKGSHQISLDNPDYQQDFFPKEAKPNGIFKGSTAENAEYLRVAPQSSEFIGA

Structure (SMILES) | IC50 [1] [nM] | IC50 [2] [nM] | IC50 [3] [nM] | IC50 [4] [nM] | viability at 4 days, 50 µM [5] [%] | IC50 [6] [nM] | IC50 (BRAF^V600E [9]) | IC50 (EGFR [10]) [nM] | other results
COc1ccc(-c2cc(-c3ccc(OC)c(OC)c3)n(CC(=O)Nc3ccc(C4=NNC(c5ccccc5)C4)cc3)c(=O)c2C#N)cc1OC (centres unmarked) [Compound 22, 2-(3-Cyano-4,6-bis(3,4-dimethoxyphenyl)-2-oxopyridin-1(2H)-yl)-N-(4-(5-phenyl-4,5-dihydro-1H-pyrazol-3-yl)phenyl)acetamide] | 33 | 35 ± 3 | 32 ± 3 | 34 ± 3 | 89 | 32 ± 3 | – | – | fold less potent than compound 30 (GI50) ([1]; GI50 ratio vs compound 30): 1.3 fold
Cc1ccc(C2CC(c3ccc(NC(=O)Cn4c(-c5ccc(Cl)cc5)cc(-c5ccc(Cl)cc5)c(C#N)c4=O)cc3)=NN2)c(C)c1 (centres unmarked) [Compound 26, 2-(3-Cyano-4,6-bis(4-chlorophenyl)-2-oxopyridin-1(2H)-yl)-N-(4-(5-(2,4-dimethylphenyl)-4,5-dihydro-1H-pyrazol-3-yl)phenyl)acetamide] | 37 | 40 ± 4 | 35 ± 3 | 36 ± 3 | 92 | 36 ± 3 | – | – | –
COc1ccc(C2CC(c3ccc(NC(=O)Cn4c(-c5ccc(Cl)cc5)cc(-c5ccc(Cl)cc5)c(C#N)c4=O)cc3)=NN2)cc1 (centres unmarked) [Compound 25, 2-(3-Cyano-4,6-bis(4-chlorophenyl)-2-oxopyridin-1(2H)-yl)-N-(4-(5-(4-methoxyphenyl)-4,5-dihydro-1H-pyrazol-3-yl)phenyl)acetamide] | 42 | 45 ± 4 | 40 ± 3 | 42 ± 4 | 88 | 42 ± 4 | – | – | –
COc1ccc(/C=C/C(=O)c2ccc(NC(=O)Cn3c(-c4ccc(OC)c(OC)c4)cc(-c4ccc(OC)c(OC)c4)c(C#N)c3=O)cc2)cc1OC [Compound I] | – | – | – | – | – | – | – | – | IC50 (Panc-1 cancer): 800 nM; IC50 (EGFR [7]): 89 nM; IC50 (BRAF^V600E [8]; read-out: BRAF^V600E inhibition IC50): 65 nM
C#Cc1cccc(Nc2ncnc3cc(OCCOC)c(OCCOC)cc23)c1 [Erlotinib, reference compound] | – | 40 ± 3 | 30 ± 3 | 30 ± 3 | – | 30 ± 3 | – | – | –
N#Cc1c(-c2ccc(Cl)cc2)cc(-c2ccc(Cl)cc2)n(CC(=O)Nc2ccc(C3=NNC(c4ccccc4)C3)cc2)c1=O (centres unmarked) [Compound 21, 2-(3-Cyano-4,6-bis(4-chlorophenyl)-2-oxopyridin-1(2H)-yl)-N-(4-(5-phenyl-4,5-dihydro-1H-pyrazol-3-yl)phenyl)acetamide] | 28 | 30 ± 3 | 26 ± 2 | 28 ± 2 | 90 | 28 ± 2 | 73 ± 6 nM | 72 ± 5 | Caspase-3 Conc [11]: 530 ± 5 pg/mL
N#Cc1c(-c2ccc(Cl)cc2)cc(-c2ccc(Cl)cc2)n(CC(=O)Nc2ccc(C3=NNC(c4ccc(Cl)cc4)C3)cc2)c1=O (centres unmarked) [Compound 23, 2-(3-Cyano-4,6-bis(4-chlorophenyl)-2-oxopyridin-1(2H)-yl)-N-(4-(5-(4-chlorophenyl)-4,5-dihydro-1H-pyrazol-3-yl)phenyl)acetamide] | 32 | 34 ± 3 | 29 ± 2 | 32 ± 3 | 91 | 32 ± 3 | – | – | –
CN[C@@H]1C[C@H]2O[C@@](C)([C@@H]1OC)n1c3ccccc3c3c4c(c5c6ccccc6n2c5c31)C(=O)NC4 [Staurosporine, reference compound] | – | – | – | – | – | – | – | – | Caspase-3 Fold Change [11]: 7 fold; Bax Fold Change [12]: 32 fold; Bcl-2 Fold Reduction [13]: 5 fold; Bcl-2 Conc [13]: 1.00 ng/mL; Caspase-8 Fold Change [14]: 21 fold
N#Cc1c(-c2ccc(Cl)cc2)cc(-c2ccc(Cl)cc2)n(CC(=O)Nc2ccc(C3=NNC(c4ccc(Cl)cc4Cl)C3)cc2)c1=O (centres unmarked) [Compound 27, 2-(3-Cyano-4,6-bis(4-chlorophenyl)-2-oxopyridin-1(2H)-yl)-N-(4-(5-(2,4-dichlorophenyl)-4,5-dihydro-1H-pyrazol-3-yl)phenyl)acetamide] | 38 | 42 ± 4 | 36 ± 3 | 38 ± 3 | 88 | 38 ± 3 | – | – | –
COc1ccc(C2CC(c3ccc(NC(=O)Cn4c(-c5ccc(Cl)cc5)cc(-c5ccc(Cl)cc5)c(C#N)c4=O)cc3)=NN2)cc1OC (centres unmarked) [Compound 29, 2-(3-Cyano-4,6-bis(4-chlorophenyl)-2-oxopyridin-1(2H)-yl)-N-(4-(5-(3,4-dimethoxyphenyl)-4,5-dihydro-1H-pyrazol-3-yl)phenyl)acetamide] | 30 | 31 ± 3 | 27 ± 2 | 30 ± 3 | 91 | 30 ± 3 | 80 ± 7 nM | 75 ± 5 | –
COc1cccc2c1C(=O)c1c(O)c3c(c(O)c1C2=O)C[C@@](O)(C(=O)CO)C[C@@H]3O[C@H]1C[C@H](N)[C@H](O)[C@H](C)O1 [doxorubicin] | – | – | – | – | – | – | – | – | IC50 (A-549 cancer): 1400 nM; IC50 (Panc-1 cancer): 1000 nM
COc1ccc(C2CC(c3ccc(OCC(=O)Nc4ccc(C5=NNC(c6ccc(OC)c(OC)c6)C5)cc4)cc3)=NN2)cc1 (centres unmarked) [Compound II] | – | – | – | – | – | – | – | – | IC50 (A-549 cancer): 1000 nM; IC50 (BRAF^V600E [8]; read-out: BRAF^V600E IC50): 93 nM
COc1ccc(C2CC(c3ccc(NC(=O)Cn4c(-c5ccc(OC)c(OC)c5)cc(-c5ccc(OC)c(OC)c5)c(C#N)c4=O)cc3)=NN2)cc1 (centres unmarked) [Compound 28, 2-(3-Cyano-4,6-bis(3,4-dimethoxyphenyl)-2-oxopyridin-1(2H)-yl)-N-(4-(5-(4-methoxyphenyl)-4,5-dihydro-1H-pyrazol-3-yl)phenyl)acetamide] | 27 | 30 ± 3 | 25 ± 2 | 26 ± 2 | 89 | 26 ± 2 | 65 nM and 69 nM | 70 ± 5 | fold more potent than the reference Erlotinib (EGFR IC50) (EGFR [10]): 1.2 fold; Caspase-3 Fold Change [11]: ~9 fold; Caspase-3 Conc [11]: 590 ± 5 pg/mL and 595 ± 5 pg/mL; Bax Fold Change [12]: 36 fold; Bax Conc [12]: 325 pg/mL; Bcl-2 Fold Reduction [13]: 6 fold; Bcl-2 Conc [13]: 0.80 ng/mL; Caspase-8 Fold Change [14]: 25 fold; Caspase-8 Conc [14]: 2.25 ng/mL
COc1ccc(-c2cc(-c3ccc(OC)c(OC)c3)c(C#N)c(=O)n2CC(=O)Nc2ccc(C3=NNC(c4ccc(OC)c(OC)c4)C3)cc2)cc1 (centres unmarked) [Compound 24, 2-(3-Cyano-4-(3,4-dimethoxyphenyl)-6-(4-methoxyphenyl)-2-oxopyridin-1(2H)-yl)-N-(4-(5-(3,4-dimethoxyphenyl)-4,5-dihydro-1H-pyrazol-3-yl)phenyl)acetamide] | 29 | 31 ± 3 | 27 ± 2 | 29 ± 2 | 90 | 28 ± 2 | 77 ± 6 nM | 73 ± 5 | –
COc1ccc(-c2cc(-c3ccc(OC)c(OC)c3)n(CC(=O)Nc3ccc(C4=NNC(c5ccc(OC)c(OC)c5)C4)cc3)c(=O)c2C#N)cc1OC (centres unmarked) [Compound 30, 2-(3-Cyano-4,6-bis(3,4-dimethoxyphenyl)-2-oxopyridin-1(2H)-yl)-N-(4-(5-(3,4-dimethoxyphenyl)-4,5-dihydro-1H-pyrazol-3-yl)phenyl)acetamide] | 25 | 28 ± 2 | 23 ± 2 | 24 ± 2 | 90 | 24 ± 2 | 69 nM and 65 nM | 68 ± 4 | fold more potent than the reference Erlotinib (EGFR IC50) (EGFR [10]): 1.2 fold; Caspase-3 Fold Change [11]: ~11 fold; Caspase-3 Conc [11]: 710 ± 6 pg/mL; Bax Fold Change [12]: 38 fold; Bax Conc [12]: 345 pg/mL; fold more potent than the reference Erlotinib (GI50) ([1]; GI50 ratio vs Erlotinib): 1.3 fold; Bcl-2 Fold Reduction [13]: 8 fold; Bcl-2 Conc [13]: 0.65 ng/mL; Caspase-8 Fold Change [14]: 28 fold; Caspase-8 Conc [14]: 2.50 ng/mL
